The target of assay [1] is 5-hydroxytryptamine receptor 2A (Rattus norvegicus, UniProt P14842). Briefly: In vitro binding affinity for serotonin 5-hydroxytryptamine 2A receptor of rat cerebral cortex using [3H]ketanserin as radioligand. Format: tissue-based.
The target of assay [2] is T1, 5-hydroxytryptamine receptor 1A (Rattus norvegicus, UniProt P19327).
T1 sequence (P19327 whole entry): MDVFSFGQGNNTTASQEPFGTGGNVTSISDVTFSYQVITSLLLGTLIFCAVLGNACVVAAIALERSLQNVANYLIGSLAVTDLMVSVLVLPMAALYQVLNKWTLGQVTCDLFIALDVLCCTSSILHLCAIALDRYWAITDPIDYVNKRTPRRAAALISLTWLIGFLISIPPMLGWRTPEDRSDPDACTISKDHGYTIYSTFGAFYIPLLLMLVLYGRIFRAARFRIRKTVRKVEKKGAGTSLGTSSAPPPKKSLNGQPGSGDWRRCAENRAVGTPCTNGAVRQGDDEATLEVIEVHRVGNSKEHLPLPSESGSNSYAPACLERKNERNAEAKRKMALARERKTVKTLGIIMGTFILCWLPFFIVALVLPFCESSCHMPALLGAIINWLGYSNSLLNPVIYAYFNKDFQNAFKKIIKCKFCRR
The experiment in a line: In vitro binding affinity for serotonin 5-hydroxytryptamine 1A receptor fof rat cerebral cortex using [3H]8-OH-DPAT as radioligand. Format: tissue-based.

IC50 data for 19 compounds are collected here from ChEMBL document CHEMBL1135623, “Synthesis and pharmacological evaluation of 1-[(1,2-diphenyl-1H-4-imidazolyl)methyl]-4-phenylpiperazines with clozapine-like mixed activities at dopamine D(2), serotonin, and GABA(A) receptors” (J Med Chem, 2002).

The structures appear in SMILES notation.

Chain of 5-hydroxytryptamine receptor 2A (P14842 whole entry): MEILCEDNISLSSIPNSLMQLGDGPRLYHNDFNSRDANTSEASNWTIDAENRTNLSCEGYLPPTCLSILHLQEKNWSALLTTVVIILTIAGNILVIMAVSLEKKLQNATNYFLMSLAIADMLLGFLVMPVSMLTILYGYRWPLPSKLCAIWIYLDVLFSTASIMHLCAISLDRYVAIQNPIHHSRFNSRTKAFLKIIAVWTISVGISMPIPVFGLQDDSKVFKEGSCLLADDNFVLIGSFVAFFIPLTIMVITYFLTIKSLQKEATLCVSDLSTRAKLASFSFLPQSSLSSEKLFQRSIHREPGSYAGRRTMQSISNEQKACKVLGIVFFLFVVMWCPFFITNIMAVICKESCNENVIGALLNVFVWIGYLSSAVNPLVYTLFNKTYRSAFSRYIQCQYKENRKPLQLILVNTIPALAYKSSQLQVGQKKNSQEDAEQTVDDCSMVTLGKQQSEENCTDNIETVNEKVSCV

Consider `Fc1ccc(N2CCN(Cc3cn(-c4ccccc4)c(-c4ccccc4)n3)CC2)cc1`, for which the IC50 in assay [1] is 501 nM; in assay [2], 806 nM.

Turning to `Clc1cccc(N2CCN(Cc3cn(-c4ccccc4)c(-c4ccccc4)n3)CC2)c1`, the IC50 amounted to 717 nM in assay [1] and 166 nM in assay [2].

`CCOc1ccccc1N1CCN(Cc2cn(-c3ccc(F)cc3)c(-c3ccc(F)cc3)n2)CC1` displayed an IC50 in assay [2] of 51.9 nM.

For the compound `c1ccc(-c2nc(CN3CCN(c4ccccc4)CC3)cn2-c2ccccc2)cc1`, the IC50 in assay [1] was over 10000 nM; in assay [2], 2700 nM.

As to `FC(F)(F)c1ccc(N2CCN(Cc3cn(-c4ccccc4)c(-c4ccccc4)n3)CC2)cc1`, the IC50 was 1510 nM in assay [1] and 224 nM in assay [2].

For `Fc1ccc(-c2nc(CN3CCN(c4ccccc4)CC3)cn2-c2ccc(F)cc2)cc1`, the IC50 came to 783 nM in assay [1] and 525 nM in assay [2].

Turning to `COc1ccccc1N1CCN(Cc2cn(-c3ccc(F)cc3)c(-c3ccc(F)cc3)n2)CC1`, the IC50 in assay [1] is 259 nM; in assay [2], 171 nM.

For the compound `CCOc1ccccc1N1CCN(Cc2cn(-c3ccccc3)c(-c3ccccc3)n2)CC1`, the IC50 in assay [1] was 172 nM; in assay [2], 56.9 nM.

Consider `COc1ccc(N2CCN(Cc3cn(-c4ccccc4)c(-c4ccccc4)n3)CC2)cc1`, for which the IC50 is 1920 nM in assay [1] and 8440 nM in assay [2].

In the case of `FC(F)(F)c1cccc(N2CCN(Cc3cn(-c4ccccc4)c(-c4ccccc4)n3)CC2)c1`, the IC50 in assay [1] was 2130 nM; in assay [2] it was 206 nM.

As to `Clc1ccccc1N1CCN(Cc2cn(-c3ccccc3)c(-c3ccccc3)n2)CC1`, the IC50 was found to be 142 nM in assay [1] and 255 nM in assay [2].

For `COc1cccc(N2CCN(Cc3cn(-c4ccccc4)c(-c4ccccc4)n3)CC2)c1`, the IC50 was 2340 nM in assay [1] and 271 nM in assay [2].

On to `c1ccc(-c2nc(CN3CCN(c4ccccn4)CC3)cn2-c2ccccc2)cc1`, for which the IC50 in assay [1] stood at 2020 nM; in assay [2] it was 197 nM.

`CN1CCN(Cc2cn(-c3ccccc3)c(-c3ccccc3)n2)CC1` came in with an IC50 in assay [1] of over 10000 nM.

For `Clc1ccc(N2CCN(Cc3cn(-c4ccccc4)c(-c4ccccc4)n3)CC2)cc1`, the IC50 in assay [1] worked out at 315 nM; in assay [2], 1890 nM.

For `c1ccc(CN2CCN(Cc3cn(-c4ccccc4)c(-c4ccccc4)n3)CC2)cc1`, the figures for the IC50 in assay [1] and in assay [2] were 2170 nM and 1130 nM, respectively.

For `Fc1ccccc1N1CCN(Cc2cn(-c3ccccc3)c(-c3ccccc3)n2)CC1`, the IC50 in assay [1] was found to be 25.3 nM; in assay [2], 332 nM.

On to `COc1ccccc1N1CCN(Cc2cn(-c3ccccc3)c(-c3ccccc3)n2)CC1`, for which, in assay [1], the IC50 came to 131 nM.

The compound `CN(C)CCCSc1ccccc1NC(=O)/C=C/c1ccccc1` [CINANSERIN] returned an IC50 in assay [1] of 14.8 nM.

As a reminder, the IC50 is the concentration that inhibits the measured activity by half. Read a high IC50 as weaker potency in that assay.
